From patent US20100068150A1, “Selective Caspase Inhibitors” (The Board of Trustees of the Leland Stanford Junior …, priority 2006, published 2010)
Entries after “also recorded” stand apart in the source; their conditions may differ.

Columns and labels:
[1] = target: T1, caspase-9 in 293 extracts (Homo sapiens, UniProt P55211); assay: Intrinsic apoptosis assay in 293 extracts, KMB01 labeling of caspase-9; format: biochemical
T1 construct: endogenous in cells
Excerpt: To further confirm our assignment of the labeled species we treated samples at various activation times with purified recombinant Bir3 domain of XIAP. This polypeptide specifically binds to and inhibits caspase-9 but not caspase-3 or 7. […] We cannot rule out the possibility that p33 caspase-9 is the result of cleavage by some other protease or itself after it has already been labeled by KMB01 or inhibited by Bir3.
Profiling of caspase activity in 293 extracts that had been treated with AB06 at the same time as cytochrome c/dATP confirmed the selectivity of our inhibitor. […]
To confirm that our inhibitor AB06 was not reducing caspase 9 activity resulting in slow processing of caspase-7 and accumulation of a partially processed intermediate we treated extracts with a range of AB06 concentrations and monitored caspase-9 inhibition at various time points after cytochrome c/dATP addition. […]
Hypotonic 293 or MCF-7 extracts (4.7 μg/μl total protein concentration; 73 μg of total protein per time point) were activated by addition of cytochrome c (100 uM final) and dATP (1 mM final) for a range of times from 0-240 minutes as indicated. […] A portion (13.5 μg total protein) from each time point was analyzed by SDS-PAGE using 10-20% gradient gels followed by blotting for biotin as described above. […]

[2] = system: endogenous caspases in intact Jurkat cells; assay: Direct labeling of endogenous caspase activity in live Jurkat cells; format: cell-based; conditions: anti-Fas or etoposide 15 h, probe 2 h; KMB01, bAB19 10 μM; bAB06, bAB13 1 μM

T1 sequence (P55211 1-315 limits assumed): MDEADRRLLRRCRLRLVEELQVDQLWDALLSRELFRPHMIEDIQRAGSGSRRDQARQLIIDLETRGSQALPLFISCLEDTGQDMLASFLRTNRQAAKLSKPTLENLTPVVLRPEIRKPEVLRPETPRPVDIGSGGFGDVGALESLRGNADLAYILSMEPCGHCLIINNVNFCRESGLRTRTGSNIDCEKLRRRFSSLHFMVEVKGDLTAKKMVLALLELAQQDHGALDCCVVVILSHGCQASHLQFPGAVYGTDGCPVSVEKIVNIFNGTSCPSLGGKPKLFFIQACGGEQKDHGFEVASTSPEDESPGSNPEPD
T1 sequence (P55211 331-416 limits assumed): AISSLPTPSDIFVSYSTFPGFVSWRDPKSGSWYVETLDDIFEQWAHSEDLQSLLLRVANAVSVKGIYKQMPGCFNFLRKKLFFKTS
T1 sequence (O14727 whole entry partner): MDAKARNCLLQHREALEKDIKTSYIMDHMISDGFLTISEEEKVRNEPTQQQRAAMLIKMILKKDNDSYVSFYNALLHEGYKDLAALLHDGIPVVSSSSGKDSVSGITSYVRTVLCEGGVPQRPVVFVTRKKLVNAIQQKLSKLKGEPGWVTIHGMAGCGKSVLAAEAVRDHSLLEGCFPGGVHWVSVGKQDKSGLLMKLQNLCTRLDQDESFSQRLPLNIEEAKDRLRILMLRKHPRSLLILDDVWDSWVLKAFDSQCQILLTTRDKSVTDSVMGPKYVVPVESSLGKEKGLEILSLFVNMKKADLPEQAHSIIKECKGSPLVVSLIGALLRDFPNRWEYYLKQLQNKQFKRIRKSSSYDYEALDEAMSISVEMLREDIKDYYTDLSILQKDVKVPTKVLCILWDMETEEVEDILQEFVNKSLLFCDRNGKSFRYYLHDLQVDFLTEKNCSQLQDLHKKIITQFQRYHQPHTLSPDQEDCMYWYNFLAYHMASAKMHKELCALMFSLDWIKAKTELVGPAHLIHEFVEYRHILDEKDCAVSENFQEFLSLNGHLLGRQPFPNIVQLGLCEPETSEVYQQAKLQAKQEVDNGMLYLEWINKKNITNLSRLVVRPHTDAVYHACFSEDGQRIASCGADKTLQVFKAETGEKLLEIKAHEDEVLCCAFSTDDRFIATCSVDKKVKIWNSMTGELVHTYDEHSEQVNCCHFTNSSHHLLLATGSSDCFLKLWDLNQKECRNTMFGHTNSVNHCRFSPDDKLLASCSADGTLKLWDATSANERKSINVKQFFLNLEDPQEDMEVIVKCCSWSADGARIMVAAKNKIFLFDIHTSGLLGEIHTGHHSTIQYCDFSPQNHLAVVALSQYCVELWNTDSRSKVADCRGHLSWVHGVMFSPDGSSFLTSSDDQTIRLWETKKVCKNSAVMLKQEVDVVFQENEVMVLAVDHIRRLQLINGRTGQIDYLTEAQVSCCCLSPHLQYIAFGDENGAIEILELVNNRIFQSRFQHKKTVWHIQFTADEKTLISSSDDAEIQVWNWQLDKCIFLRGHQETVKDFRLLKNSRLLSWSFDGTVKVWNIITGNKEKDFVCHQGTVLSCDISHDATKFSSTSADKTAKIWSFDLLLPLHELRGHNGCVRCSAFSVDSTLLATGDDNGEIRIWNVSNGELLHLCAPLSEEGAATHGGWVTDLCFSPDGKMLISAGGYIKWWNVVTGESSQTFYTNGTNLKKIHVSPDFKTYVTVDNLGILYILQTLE
T1 sequence (P99999 2-105 partner limits assumed): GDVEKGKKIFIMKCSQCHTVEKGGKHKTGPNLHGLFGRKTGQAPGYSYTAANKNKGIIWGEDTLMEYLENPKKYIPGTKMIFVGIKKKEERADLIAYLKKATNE

Compound	KMB01 labeling of processed forms of caspase-9 and precursor forms of caspase-7 ([1]; AB06 added at the same time as cytochrome c/dATP)	cross reactivity with caspase-9 ([1]; range of AB06 concentrations, as high as 10 μM for up to 30 minutes)	labeling of endogenous caspases in intact cells [2]
Cc1cccc(C)c1C(=O)OCC(=O)[C@H](CC(=O)O)NC(=O)[C@@H](NC(=O)[C@H](Cc1ccncc1)NC(=O)[C@H](CC(=O)O)NC(=O)Cc1ccc(O)c([N+](=O)[O-])c1)C(C)C [AB06, Np-D-3-V-D-DMBA]	unaltered	lack of cross reactivity	–
Bio-EVD-AOMK [KMB01, reference compound]	–	–	robust labeling of downstream caspases-3 and 7; also recorded: did not show labeling of caspase-9
